Blank lines part the entries; values can stand above or below the molecule they belong to. Where no end group is shown, it is not given here.
What was measured:
HUVECs [1] = assay: EC adhesion assay; format: cell-based, human; conditions: siRNA-transfected HUVECs
Description: (§1) HUVECs were transfected with scrambled (control) and human AMIGO2 siRNAs using Lipofectamine® (Invitrogen) for 3 h, and cells were assayed 48 h after transfection. Human AMIGO2 siRNA was designed by Invitrogen using the following sequences: 5′-[…]-3′ (SEQ ID NO: 8) and 5′-[…]-3′ (SEQ ID NO: 9). HUVECs were transfected with EGFP-tagged plasmids using Lipofectamine® LTX and PLUS™ (Invitrogen) for 2 h, and cells were assayed 24 h after transfection.
HUVECs transfected with siRNA were trypsinized and washed twice in phenol-free M199. Prior to seeding, a 96-well plate was coated with 2% gelatin, fibronectin (3 μg/ml in PBS), and collagen type I (10 μg/ml in PBS), and incubated at 37° C. for 1 h in a humidified incubator. Prior to the initiation of the experiments, the wells were rinsed twice with PBS. HUVECs were labeled with calcein AM, and 1.5×10^4 cells were seeded into each well of the 96-well plates. Cells were incubated for 1 h at 37° C., and non-adherent, calcein-labeled cells were removed by four washes. M199 containing 20% FBS was added to the cells in each well, and the fluorescence was measured (maximum absorbance at 494 nm and maximum emission at 517 nm) using a fluorescein filter set by FLUOstar Omega (BGM LABTECH).

Akt = assay: Endogenous Akt signaling in AMIGO2 siRNA-transfected HUVECs; format: cell-based, human
Description: as §1

HUVECs [2] = assay: FAK immunostaining, F-actin staining and apoptosis markers in siRNA-transfected HUVECs; format: cell-based, human
Description: as §1
HUVECs were fixed in 3.7% formaldehyde for 10 min and permeabilized with 0.1% Triton X-100 on the ice. Cells were labeled with anti-FAK antibody (Santa Cruz Biotechnology), anti-PDK1 antibody (Cell Signaling Technology), anti-Akt antibody (Cell Signaling Technology), and anti-AMIGO2 antibody (Abcam) for 2 h at room temperature or overnight at 4° C. Afterwards, the cells were incubated with Alexa 488 and Alexa 546 secondary antibodies (Invitrogen) for 60 min at room temperature, and were then examined under a confocal microscope (LSM 700 META; Carl Zeiss).

HUVECs [3] = assay: HUVEC cell viability with or without VEGF; format: cell-based, human; conditions: in the presence or absence of VEGF
Description: Endothelial progenitor cells (EPC) were isolated from human umbilical cord blood as previously described (Maeng et al., 2009). Briefly, human umbilical cord blood samples (approximately 50 mL each) were collected from fresh placentas with attached umbilical cords by gravity flow. Human umbilical vein endothelial cells (HUVECs) were isolated from human umbilical cord veins using collagenase as described previously (Marin et al., 2001), and cells from passages three to six were used. HUVECs were cultured on 2% gelatin-coated dishes at 37° C. in a 5% CO2-humidified atmosphere using M199 medium (HyClone) containing 20% fetal bovine serum (FBS), 100 U/mL penicillin, 100 μg/mL streptomycin, 3 ng/mL bFGF (Upstate Biotechnology), and 5 U/mL heparin.
The PTD-A2 of FITC-linker-YGRKKRRQRRR-GKRVVFLEPLKDTA (SEQ ID NO: 37) (decoy peptide) and the control peptide (FITC-linker-YGRKKRRQRRR-GRVKTDFLAVPEKL (SEQ ID NO: 38)) (Con-pep) were obtained from Peptron. The experiment was performed using 5 μM concentration in vitro, 4 mg/kg was used for an animal experiment. Peptide treated HUVECs were incubated with serum-free M199 medium at 37° C.

AMIGO2 = assay: In vivo siRNA injection and analysis of hyaloid vessels and retinas; parameters: species or system mouse
Description: The sequence 5′-[…]-3′ (SEQ ID NO: 28) (mouse AMIGO2 siRNA, Dharmacon) was mixed with the TransIT®-QR Starter Kit (Mirus), and subcutaneously injected to each mouse (5 μg/P3.5 mouse) (Behlke, 2006; Bonifazi et al., 2010; Inaba et al., 2012; Mammoto et al., 2009). Hyaloid vessels and retinas were prepared as previously described (Lobov et al., 2005). After 2 days, the differences of protein change, retina, and hyaloid vessels were analyzed.

PH domain of PDK1 = molecular target: T1, PH domain of PDK1 (Homo sapiens, UniProt O15530); assay: Pull-down assay and Far-western analysis of truncated AMIGO2 CD mutants; format: binding; conditions: purified GST-tagged proteins
T1 construct: the purified His-tagged PH domain proteins were incubated with Ni^2+-NTA resins; made in house; host or cells: Escherichia coli BL21
T1 sequence (O15530 409-556): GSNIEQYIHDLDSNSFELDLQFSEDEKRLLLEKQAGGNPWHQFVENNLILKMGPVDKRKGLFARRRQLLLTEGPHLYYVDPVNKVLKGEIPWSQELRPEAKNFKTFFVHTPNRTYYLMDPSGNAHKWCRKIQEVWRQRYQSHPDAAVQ
Description: GST-CD, 420-484, 420-474, 420-464 and 420-454 were prepared with vector plasmids of pGEX 4T1 and pET32a followed by the preparation of His-PH.BamH1 (5′-[…]-3′) (SEQ ID NO: 29) and Xho1 (5′-[…]-3′ (SEQ ID NO: 30), CD; 5′-[…]-3′ (SEQ ID NO: 31), 420-484; 5′-[…]-3′ (SEQ ID NO: 32), 420-474; 5′-[…]-3′ (SEQ ID NO: 33), 420-464; and 5′-[…]-3′ (SEQ ID NO: 34), 420-454) were used, and BamH1 (5′-[…]-3′ (SEQ ID NO: 35)) and Xho1 (5′-[…]-3′ (SEQ ID NO: 36)) were used for preparing His-PH. The proteins were expressed in Escherichia coli BL21, and purified with glutathione-Sepharose 4B resin and Ni2+-NTA-agarose.
GST and His-fused proteins (1.5 mg/ml:1.5 mg/ml) were incubated for 2 h at 4° C., immobilized on Ni^2+-NTA resin or glutathione-Sepharose 4B beads, and incubated for 30 min. Proteins were then eluted with elution buffer (25 mM NaPi, 300 mM NaCl, 5 mM β-mercaptoethanol, 500 mM imidazole, pH 7.5), western blot was performed with anti-GST and His antibodies.
Far-western analysis was performed as previously described (Wu et al., 2007). Briefly, purified GST-tagged proteins (1 μg) were loaded and separated, and then transferred to PVDF membranes. The membranes were denatured and renatured, incubated with purified His-tagged PH domain proteins (10 μg), and then detected with anti-His antibody.

[4] = subcutaneous injection, 5 μg/P3.5 mouse, after 2 days

Molecule: 5′-UUAGGAUGCCCUCAGCUAUCACUGC-3′ (SEQ ID NO: 8) and 5′-AUUGUUGUAAAGCAGAAGCACUUCC-3′ (SEQ ID NO: 9) [AMIGO2 siRNA]
- adhesion on ECM substrates (gelatin, fibronectin, collagen type I) (HUVECs [1]): reduced
- Akt phosphorylation (Thr308 and Ser473) (Akt): reduced
- active caspase-3 and FAK fragments (HUVECs [2]): detected
- expression of FAK (immunostaining) (HUVECs [2]): low
- F-actin depolymerization (HUVECs [2]; rhodamine-phalloidin staining): exhibited F-actin depolymerization
- cell viability of siRNA-transfected HUVECs (HUVECs [3]): decreased

Molecule: 5′-UUGUACAAAAGAUCUCGCUGA-3′ (SEQ ID NO: 28) [AMIGO2-specific siRNA]
- Akt phosphorylation in hyaloid vessels and retinas (AMIGO2; Amigo2-depleted mice): decreased
- expression of AMIGO2 in vivo (AMIGO2; subcutaneous injection, 5 μg/P3.5 mouse): decreased
- hyaloid vessel structure (AMIGO2; [4]): significant decreases
- retinal vessel growth and vascular areas (AMIGO2; [4]): reduced

- direct interaction with purified His-PDK1 PH (PH domain of PDK1): directly interacted
Molecule: 420-474: purified GST-tagged truncated mutant of the AMIGO2 cytosolic domain, residues 420-474 (TPCPCKCKTKRQKNMLHQSNAHSSILSPGPASDASADERKAGAGKRVVFLEPLKD; cysteine pairing not given here; also: GST-tagged)

- direct interaction with purified His-PDK1 PH (PH domain of PDK1): directly interacted
B1: 420-484: purified GST-tagged truncated mutant of the AMIGO2 cytosolic domain, residues 420-484 (protein)
chain: TPCPCKCKTKRQKNMLHQSNAHSSILSPGPASDASADERKAGAGKRVVFLEPLKDTAAGQNGKVR
modifications: also: GST-tagged

- direct interaction with purified His-PDK1 PH (PH domain of PDK1): directly interacted
B2: GST-tagged AMIGO2^CD: purified GST-tagged cytosolic domain of AMIGO2 (420-522aa) (protein)
chain: TPCPCKCKTKRQKNMLHQSNAHSSILSPGPASDASADERKAGAGKRVVFLEPLKDTAAGQNGKVRLFPSEAVIAEGILKSTRGKSDSDSVNSVFSDTPFVAST
modifications: left off: a dimerising Fc or GST

— patent US10125183B2, “Decoy peptides inhibiting binding of AMIGO2 and 3-phosphoinositide-dependent kinase 1” (Curacle Co., Ltd., priority 2015, dated 2018)
